The nature of the series: Stability of the deprotected bisthiol measured by HPLC with UV and mass detection. The format is physicochemical. The following applies: room temperature. As to the method:
Stability of compound O-5648 (see Example 1, above) was measured by HPLC with UV and mass detection. The bisthiol free base was stable up to 100 hours at room temperature in methanol exposed to air.
The bisthiol dihydrochloride salt was stable in MeOH up to 150 hours at room temperature.
The solid bisthiol dihydrochloride salt exposed to air was stable for >170 hours at room temperature.

Counter-ions that a name gives are not always drawn.

As to `CCC(=O)C1C2CC[C@H](C[C@H]1c1ccc(F)cc1)N2CCCN(CCS)CC(=O)NCCS` (stereo partly drawn) [O-5648, N-[2-(3′-N′-Propyl-(1″R)-3″α-(4-fluorophenyl)tropane-2″β-(1-propanoyl)-[(2-mercapto-ethyl)-amino]-(2-mercapto-ethyl-acetamide, dihydrochloride salt], the “time stable (bisthiol dihydrochloride salt in MeOH)” value (bisthiol dihydrochloride salt, in MeOH) is listed as “up to 150 hours”. Where the note is “bisthiol free base, in methanol exposed to air”, the “time stable (bisthiol free base in methanol)” value is “up to 100 hours”. Besides, the “time stable (solid bisthiol dihydrochloride salt)” value (solid bisthiol dihydrochloride salt exposed to air) was over 170 h.

Values taken from patent US20090270626A1, “STABLE BISTHIOL COMPOUNDS FOR RA[…] THERAPY” (Organix, Inc., priority 2008, published 2009).
